Results published in US20230000842A1, “METHODS OF TREATING CARTILAGE DISORDERS THROUGH INHIBITION OF CLK AND DYRK” (SAMUMED, LLC, priority 2019, published 2023).

Tests used:
[1] = test system: Wnt pathway activity (SW480 colon carcinoma cells stably expressing the Sp5-Luc reporter); assay: Wnt pathway activity screening assay (Sp5-Luc reporter gene assay); conditions: Homo sapiens, SW480, Table 4; SW480 cells stably expressing Sp5-Luc reporter, 10-point dose-response from 10 μM, 36 to 48 hours
[2] = target: CLK3 kinase (Homo sapiens, UniProt P49761); assay: CLK3 kinase activity assay (Z-lyte FRET); assay type: biochemical; conditions: Z-lyte Ser/Thr 18 peptide, 156 μM ATP, 1 h at room temperature;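 further: kinase activity read as coumarin/fluorescein emission ratio by FRET, unphosphorylated peptide as 0% and phosphorylated peptide as 100% control, values from non-linear regression of dose-response curves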
CLK3 kinase, sequence (P49761 whole entry): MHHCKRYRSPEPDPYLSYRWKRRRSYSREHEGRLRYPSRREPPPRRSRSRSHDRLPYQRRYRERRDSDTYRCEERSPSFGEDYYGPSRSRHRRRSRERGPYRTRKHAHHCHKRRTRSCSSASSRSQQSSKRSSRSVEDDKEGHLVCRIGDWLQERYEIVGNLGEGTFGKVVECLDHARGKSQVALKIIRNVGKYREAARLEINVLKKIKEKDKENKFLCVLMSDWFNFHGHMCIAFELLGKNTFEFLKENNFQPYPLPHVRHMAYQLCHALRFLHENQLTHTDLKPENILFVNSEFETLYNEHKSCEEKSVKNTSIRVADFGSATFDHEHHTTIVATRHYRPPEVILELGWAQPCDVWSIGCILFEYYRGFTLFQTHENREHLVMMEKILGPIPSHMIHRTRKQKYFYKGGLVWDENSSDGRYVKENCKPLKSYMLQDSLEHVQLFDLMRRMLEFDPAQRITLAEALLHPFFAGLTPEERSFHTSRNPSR

[3] = test system: MMP-3 levels in supernatant of chondrocytes stimulated with IL1-β; assay: Chondrocyte protection assay compound screening (MMP-3 LANCE Ultra); assay type: cell-based, human; conditions: Homo sapiens, Chondrocyte, IL1-β 10 ng/mL overnight, 11-point curves from 3 μM to 0.05 nM; for Emax: read-out: Maximum % Inhibition
Protocol: Human Chondrocyte Cell Culture: Primary human chondrocytes were purchased from Lonza (Walkersville, Md.) and expanded in Chondrocyte Growth Media (CGM, Lonza). Cells between passage 2 and 5 were used for the experiments.
Chondrocytes were plated at 8,000 cells/well in 40 μL/well Chondrocyte Differentiation Medium (Lonza; 500 mL Basal Medium, 25 mL FBS, 0.5 mL GA-1000, 1 mL R3-IGF, 2.5 mL bFGF, 0.5 mL Transferrin, and 1 mL Insulin). After 2 hours of incubation at 37° C. and 5% CO2, IL1-β (Peprotech, Rocky Hill, N.J.) was added to a final concentration of 10 ng/mL. 11 wells in 1 row were left unstimulated for normalization and calculating EC50 values. Cells were incubated at 37° C. and 5% CO2 overnight. Assay plates are spun, 25 μl of supernatant media was collected using (S2 pipettor, Apricot Designs). Cells were lysed using 10 μL of (Cell Titer-Glo, Promega). Luminescent signal detected using an En Vision Multilabel reader (Perkin Elmer). MMP-3 levels were measured in supernatant. Supernatant diluted 1:7 in DMEM. MMP-3 levels in the supernatant were measured using MMP-3 LANCE Ultra detection kit (Perkin Elmer). Briefly, 5 μL of diluted supernatant was transferred to low-volume 384 well plates using (S2 pipettor, Apricot Designs). A standard curve was prepared using MMP-3 analyte (range […]). 1.7 μL of 8× mix of Eu-labelled anti-MMP-3 antibody and ULight labelled anti-MMP-3 antibody was added to the plates using Mantis Liquid handler (Formulatrix). Plates were incubated overnight at room temperature. LANCE signal was detected using an EnVision Multilabel reader (Perkin Elmer), equipped with TR-FRET using excitation wavelength of 320 nm and two emission wavelengths of 615 nm and 665 nm. Data was analyzed according to the kit protocol, using the ratio of […] and the standard curve values were used to calculate the amount of MMP3 in the […] (in pg/ml). The normalized averages (fold change over IL1-β stimulated) for each compound concentration were calculated. EC50 and maximum % inhibition values were calculated using the dose-response nonlinear regression curve-fit in Dotmatics.

[4] = target: CLK2 kinase (Homo sapiens, UniProt P49760); assay: CLK2 kinase activity assay (Z-lyte FRET); assay type: biochemical; conditions: Z-lyte Ser/Thr 6 peptide, 60 μM ATP, 1 h at room temperature;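 further: FRET read-out as coumarin to fluorescein emission ratio, unphosphorylated peptide as 0% and phosphorylated peptide as 100% controls, duplicate reactions, non-linear regression fit of dose-response curves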
CLK2 kinase, sequence (P49760 whole entry): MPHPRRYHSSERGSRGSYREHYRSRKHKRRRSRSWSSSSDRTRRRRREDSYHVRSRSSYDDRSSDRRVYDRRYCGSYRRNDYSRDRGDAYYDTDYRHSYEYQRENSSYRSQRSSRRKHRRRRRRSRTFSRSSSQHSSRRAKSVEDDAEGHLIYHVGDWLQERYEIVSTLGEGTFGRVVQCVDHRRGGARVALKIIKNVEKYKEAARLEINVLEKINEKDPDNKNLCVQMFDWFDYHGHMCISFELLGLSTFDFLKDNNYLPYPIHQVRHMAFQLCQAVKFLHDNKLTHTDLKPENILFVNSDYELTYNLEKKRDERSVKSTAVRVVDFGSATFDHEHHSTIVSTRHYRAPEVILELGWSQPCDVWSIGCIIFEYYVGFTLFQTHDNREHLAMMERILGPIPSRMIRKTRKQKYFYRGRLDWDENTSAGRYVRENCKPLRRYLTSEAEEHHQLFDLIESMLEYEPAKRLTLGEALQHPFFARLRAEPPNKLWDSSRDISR

[5] = test system: primary human mesenchymal stem cells (hMSCs); assay: Chondrogenesis screening using primary human mesenchymal stem cells; assay type: cell-based; conditions: Homo sapiens, Mesenchymal stem cells, hMSC chondrogenesis; maximum activity relative to TGF-β3 (10 ng/mL) positive control; read-out: Max. Activity as % TGF-β3 activity
How it was run: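 Derived values are EC50 for 50% chondrogenesis, maximal activity and the dose giving it. These come from nodule area in passage 3–6 primary hMSCs, expressed as fold change over the mean of 3 same-plate DMSO wells, 2–3 replicates per concentration. TGF-β3 served as positive control.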

Compound | EC50 [1] | EC50 [2] | EC50 [4] | EC50 [3] | Emax [3] | Emax [5]
O=C(Nc1c[nH]nc1C(=O)Nc1cccnc1)c1cccnc1 [compound 1] | 20.5 nM | 5300 nM | 23 nM | 38.9 nM | 100% | –
O=C(Nc1c[nH]nc1C(=O)Nc1ccc(OCCN2CCCC2)cc1)c1cccnc1 [compound 3] | 119 nM | 3700 nM | 24 nM | 811 nM | 23.7% | –
COc1cncc(C(=O)Nc2c[nH]nc2C(=O)Nc2ccc(CN(C)C)cc2)c1 [compound 4] | 123 nM | 6610 nM | 57 nM | ≥ 3000 nM | 99.9% | –
COc1cncc(C(=O)Nc2c[nH]nc2C(=O)Nc2ccc3c(c2)CCNC3)c1 [compound 8] | 613 nM | 6160 nM | 27 nM | 342 nM | 76% | –
COc1cncc(C(=O)Nc2c[nH]nc2C(=O)Nc2ccc3c(c2)CCN(C)C3)c1 [compound 9] | 558 nM | 6090 nM | 45 nM | ≥ 3000 nM | 65.6% | –
O=C(Nc1c[nH]nc1C(=O)Nc1ccc(N2CCCC2)nc1)c1cncc(OC2CCNCC2)c1 [compound 11] | 2.5 nM | 5150 nM | 9 nM | ≥ 3000 nM | 80% | –
O=C(Nc1c[nH]nc1C(=O)Nc1ccc(N2CCCCC2)nc1)c1cncc(OC2CCNCC2)c1 [compound 13] | 662 nM | 3500 nM | 14 nM | ≥ 3000 nM | 71% | –
Cc1[nH]nc(C(=O)Nc2ccc(CN3CCCC3)cc2)c1/C=C/c1cccnc1 [compound 18] | 2150 nM | 3990 nM | 20 nM | 1050 nM | 25.5% | –
O=C(Nc1ccc(OCCN2CCCC2)cc1)c1n[nH]cc1/C=C/c1cccnc1 [compound 19] | 1850 nM | 967 nM | 6 nM | ≥ 3000 nM | 31.1% | –
Cc1[nH]nc(C(=O)Nc2ccc(OC3CCN(C)CC3)nc2)c1/C=C/c1cccnc1 [compound 22] | > 10000 nM | 2330 nM | 7 nM | 17.8 nM | 64.6% | –
COc1ccc(NC(=O)c2n[nH]cc2/C=C/c2cncc(CN3CCCCC3)c2)cn1 [compound 24] | 1450 nM | 1250 nM | 26 nM | ≥ 3000 nM | 74.1% | –
O=C(Nc1ccc(C2CCC(F)(F)C2)nc1)c1n[nH]cc1C#Cc1cccnc1 (centres unmarked) [compound 27] | > 10000 nM | > 10000 nM | 32 nM | ≥ 3000 nM | 88.5% | –
Cc1n[nH]c2ccc(-c3cncc(OCCN)c3)cc12 [compound 34] | 1640 nM | 5250 nM | – | ≥ 3000 nM | 12.9% | –
Cc1n[nH]c2ccc(-c3cncc(N4CC(C)(N)C4)n3)cc12 [compound 36] | 3510 nM | 3400 nM | 70 nM | 1610 nM | – | –
CCC1(N)CN(c2cncc(-c3ccc4[nH]nc(C)c4c3)n2)C1 [compound 37] | 1730 nM | 5500 nM | 43 nM | ≥ 3000 nM | 55.1% | –
Cc1n[nH]c2ccc(-c3cncc(N4CCC[C@H](N)C4)n3)cc12 [compound 38] | 1430 nM | 8010 nM | 35 nM | ≥ 3000 nM | 97.5% | –
Cc1n[nH]c2ccc(-c3cncc(N4CCC(O)CC4)n3)cc12 [compound 39] | 1900 nM | 4260 nM | 25 nM | 47.8 nM | 60.8% | –
Cc1n[nH]c2ccc(-c3cncc(NCC4(F)CNC4)n3)cc12 [compound 48] | 780 nM | 1100 nM | 3 nM | 2270 nM | 100% | –
Cc1n[nH]c2ccc(-c3cncc(OCC4(F)CNC4)n3)cc12 [compound 49] | 3250 nM | 2200 nM | 6 nM | 3.5 nM | 66.1% | –
Cc1n[nH]c2ccc(-c3cncc(OC[C@@H]4Cc5ccccc5CN4)n3)cc12 [compound 50] | 2810 nM | 5730 nM | 27 nM | ≥ 3000 nM | 44.4% | –
Cc1n[nH]c2ccc(-c3cc(OC[C@H](N)Cc4ccccc4)cnn3)cc12 [compound 53] | 1150 nM | 3490 nM | 19 nM | ≥ 3000 nM | 74.9% | –

Stronger by EC50 [2], values ahead:

EC50 [1] | EC50 [2] | EC50 [4] | Compound | EC50 [3] | Emax [3] | Emax [5]
795 nM | 916 nM | 8 nM | O=C(Nc1cccnc1)c1n[nH]c2ncc(-c3cccnc3)cc12 [compound 61] | 2.2 nM | 69.2% | –
964 nM | 733 nM | 4 nM | CN1CCC(Oc2ccc(NC(=O)c3n[nH]cc3/C=C/c3cccnc3)cn2)CC1 [compound 21] | ≥ 3000 nM | 92.6% | –
1650 nM | 563 nM | 5 nM | O=C(Nc1ccc(N2CCNCC2)nc1)c1n[nH]cc1/C=C/c1cccnc1 [compound 20] | 0.2 nM | 72.6% | –
1960 nM | 498 nM | 12 nM | NC(=O)c1n[nH]c2ccc(-c3cncc(CN4CCCCC4)c3)cc12 [compound 74] | 2.3 nM | 62.7% | –
2.9 nM | 485 nM | 2 nM | O=C(Nc1c[nH]nc1-c1nc2c(-c3cccc(F)c3)cccc2[nH]1)c1cccnc1 [compound 15] | 76.5 nM | 100% | –
95 nM | 309 nM | 1 nM | Cc1n[nH]c2ccc(-c3cncc(N[C@H]4CC[C@H](O)CC4)n3)cc12 [compound 43] | ≥ 3000 nM | 41.9% | –
> 10000 nM | 139 nM | 1 nM | O=C(Nc1ccc(N2CCCC2)nc1)c1n[nH]c2ccc(-c3cncc(CN4CCC4)c3)cc12 [compound 68] | ≥ 3000 nM | 26.6% | –
> 10000 nM | 62 nM | 2 nM | O=C(Nc1cccnc1)c1n[nH]c2ccc(-c3cncc(CN4CC(CO)(CO)C4)c3)cc12 [compound 69] | 69.7 nM | 12.3% | –
477 nM | 49 nM | 1 nM | CN1CCC(Oc2ccc(NC(=O)c3n[nH]c4ccc(-c5ccc(N)nc5)cc34)cc2)CC1 [compound 66] | 4.9 nM | 62.6% | –
196 nM | 47 nM | 1 nM | O=C(Nc1ccc(CN2CCCC2)cc1)c1n[nH]c2ccc(-c3cccnc3F)cc12 [compound 65] | ≥ 3000 nM | 98.1% | –
96.6 nM | 41 nM | 1 nM | COc1ccc(NC(=O)c2n[nH]c3ccc(-c4cncc(CO)c4)cc23)cn1 [compound 67] | ≥ 3000 nM | 48.7% | –
– | 33 nM | 1 nM | Cn1cncc1-c1ccc2cnc(NC(=O)c3ccc(F)cc3)cc2c1 [compound 580] | ≥ 3000 nM | 59.4% | 24.9%
– | 26 nM | 2 nM | CC(C)N1CCC(Oc2cc(C(=O)Nc3cc4cc(-c5cnn6c5CCNC6)ccc4cn3)ccn2)CC1 [compound 575] | 75.8 nM | 41.5% | 18.6%
310 nM | 3 nM | – | c1cncc(-c2ccc3[nH]nc(-c4cc5c(-c6cccnc6)cncc5[nH]4)c3c2)c1 [compound 341] | 1.1 nM | 58.2% | 58.2%
